# Measured values taken from US10544468B2, “Molecular markers and phenotypic screening for metribuzin tolerance” (Monsanto Technology LLC, priority 2012, dated 2020).
# Tested on: soybeans
# Test: Field screening for metribuzin tolerance in soybeans (injury rating, 1-9 scale)
# Format: in vivo, Glycine max
# Settings: soybean lines containing a heterozygous (CT) allele of NGMAX006079502
# Method: A rating scale that evaluates the degree of metribuzin sensitivity can also be employed to identify “metribuzin sensitive” and “metribuzin tolerant” plants. An exemplary and non-limiting scale for evaluating the Metribuzin sensitivity phenotype is as follows, where a low number corresponds to a “metribuzin tolerance” phenotype and the a high number correlates to a “metribuzin sensitivity” phenotype: Field screening for metribuzin tolerance in soybeans was performed at the Monsanto Company Soybean Research Station near Mount Olive, N.C. in 2010 and 2011. Metribuzin application rate was 0.5 lbs/acre metribuzin (Sencor®, Bayer Crop Science, Research Triangle Park, N.C., USA) one day prior to planting. Rows were planted as single 6′ row plots with 9 seed per foot. Multiple repetitions were grown per row. Within 24 hours after planting, the trial was irrigated with 0.5″ of water to help incorporate and activate the herbicide. Injury ratings were taken fourteen to twenty one (14-21) days after planting using a 1-9 scale (for example, 1=no damage, 9=completely killed). After identifying the target region through the mapping population described in Example 2, a molecular marker was identified. An association study was done using a soybean molecular marker database. […]
structure (smiles),measurement,value
"CSc1nnc(C(C)(C)C)c(=O)n1N [Metribuzin, 4-Amino-6-(1,1-dimethylethyl)-3-(methylthio)-1,2,4-triazin-5(4H)-one]",metribuzin phenotype in the field,mixed phenotype of both tolerance and sensitivity
